Results as given in patent US20240382475A1, “Quinazoline Derivative, Or Preparation Method Therefor And Use Thereof” (Zhejiang Hisun Pharmaceutical Co., Ltd., priority 2021, published 2024).

Assays:
KRAS-G12C/SOS1 = molecular target: T1, KRAS-G12C/SOS1 (Homo sapiens, UniProt Q07889); experiment: Blocking the binding of KRAS G12C protein to SOS1 (Cisbio KRAS-G12C/SOS1 binding assay kit, TR-FRET); details: Tag1-SOS1 and Tag2-KRAS-G12C, TR-FRET 665/620; read-out: IC50 (nM) Inhibition of KRAS-G12C/SOS1 binding
T1 construct: purchased Cisbio 63ADK000CB16PEG
T1 sequence (Q07889 1-1333): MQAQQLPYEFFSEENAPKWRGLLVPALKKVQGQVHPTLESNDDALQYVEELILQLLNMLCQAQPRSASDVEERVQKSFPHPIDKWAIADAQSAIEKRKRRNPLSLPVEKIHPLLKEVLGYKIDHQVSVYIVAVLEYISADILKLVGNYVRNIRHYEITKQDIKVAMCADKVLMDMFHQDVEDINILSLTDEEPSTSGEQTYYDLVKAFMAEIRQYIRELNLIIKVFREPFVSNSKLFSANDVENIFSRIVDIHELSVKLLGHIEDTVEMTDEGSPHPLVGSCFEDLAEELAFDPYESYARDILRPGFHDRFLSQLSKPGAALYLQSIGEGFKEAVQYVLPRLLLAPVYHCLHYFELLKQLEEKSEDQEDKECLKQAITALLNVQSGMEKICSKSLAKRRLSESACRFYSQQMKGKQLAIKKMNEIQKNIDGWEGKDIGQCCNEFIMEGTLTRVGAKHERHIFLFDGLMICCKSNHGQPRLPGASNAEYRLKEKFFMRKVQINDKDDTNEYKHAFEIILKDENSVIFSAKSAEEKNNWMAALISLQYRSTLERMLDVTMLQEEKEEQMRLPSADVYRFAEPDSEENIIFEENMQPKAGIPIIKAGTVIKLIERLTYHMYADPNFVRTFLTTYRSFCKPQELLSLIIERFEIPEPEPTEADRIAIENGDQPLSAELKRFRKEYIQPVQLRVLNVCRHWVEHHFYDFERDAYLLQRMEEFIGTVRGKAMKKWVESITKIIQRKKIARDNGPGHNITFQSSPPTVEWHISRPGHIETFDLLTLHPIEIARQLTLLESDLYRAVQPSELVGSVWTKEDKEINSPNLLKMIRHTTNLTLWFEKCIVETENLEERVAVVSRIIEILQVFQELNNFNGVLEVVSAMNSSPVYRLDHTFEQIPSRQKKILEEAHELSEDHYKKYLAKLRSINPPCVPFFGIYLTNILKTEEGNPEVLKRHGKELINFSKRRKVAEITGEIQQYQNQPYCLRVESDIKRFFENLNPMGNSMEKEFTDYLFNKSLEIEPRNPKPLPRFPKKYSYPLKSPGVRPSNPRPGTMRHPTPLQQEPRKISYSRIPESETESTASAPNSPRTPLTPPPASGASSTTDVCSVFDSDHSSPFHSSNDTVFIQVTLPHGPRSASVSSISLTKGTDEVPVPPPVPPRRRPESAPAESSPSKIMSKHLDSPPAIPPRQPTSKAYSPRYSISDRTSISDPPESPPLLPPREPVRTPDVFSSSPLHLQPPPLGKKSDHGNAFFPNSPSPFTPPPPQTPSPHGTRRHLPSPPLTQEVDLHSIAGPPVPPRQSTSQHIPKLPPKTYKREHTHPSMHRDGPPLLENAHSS
Excerpt: The following method was used to determine the abilities of compounds of the invention to block the interaction of SOS1 with the KRAS G12C protein in vitro. KRAS-G12C/SOS1 BINDING ASSAY KITS (Art. No. 63ADK000CB16PEG) from Cisbio was used in this method. Please refer to the kit instruction for detailed experimental operations.
The experimental process can be briefly described as follows: diluent buffer (Art. No. 62DLBDDF) was used to prepare a working solution with a concentration of 5× for Tag1-SOS1 and Tag2-KRAS-G12C protein. The test compounds were dissolved in DMSO to prepare storage solutions of 10 mM, and then the solutions were diluted with dilution buffer for later use. First, 2 μL of the test compound (the final concentrations of the reaction system were 10000 nM-0.1 nM) was added to the well, then 4 μL of Tag1-SOS1 5× working solution and 4 μL of Tag2-KRAS-G12C 5× working solution were added, and the above mixture was centrifuged, mixed, and stood for 15 minutes; then 10 μL of premixed anti-Tag1-Tb^3+ and anti-Tag2-XL665 were added, and the mixture was incubated at room temperature for 2 hours; finally, a microplate reader was used in […] mode to measure the fluorescence intensity of each well emitting wavelengths of 620 nm and […] under the excitation wavelength of 304 nm, and the fluorescence intensity ratio 665/620 in each well was calculated. Compared with the fluorescence intensity ratio of a control group (0.1% DMSO), the percentage inhibition rates of the test compounds at each concentration were calculated, and the IC50 values of the compounds were obtained by performing nonlinear regression analysis with logarithmic values of the compound concentration-inhibition rate by GraphPad Prism 5 software, which was shown in Table 1.

OCI-AML5 cells = experiment: Inhibition of OCI-AML5 cell proliferation (CellTiter-Glo); format: cell-based; details: Homo sapiens, OCI-AML-5; OCI-AML5 cells (SOS1 N233Y mutation), 120 hours
In short: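 OCI-AML5 cells (SOS1 N233Y), 1,000 per well, treated after overnight culture with compound at final 10000 nM to 0.15 nM for 120 hours at 37° C, 5% CO2. Viability read by CellTiter-Glo luminescence.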

COc1cc2nc(C)nc(N[C@H](C)c3cccc(C#N)c3C)c2cc1N1CCC(C)(O)CC1 [Compound 11, (R)-3-(1-((6-(4-hydroxy-4-methylpiperidin-1-yl)-7-methoxy-2-methylquinazolin-4-yl)amino)ethyl)-2-methylbenzonitrile]
IC50 (KRAS-G12C/SOS1): 39.5 nM
IC50 (OCI-AML5 cells): 13.6 nM

COc1cc2nc(C)nc(N[C@H](C)c3cccc(C#N)c3C)c2cc1N1CCOCC1 [Compound 1, (R)-3-(1-((7-methoxy-2-methyl-6-morpholinoquinazolin-4-yl)amino)ethyl)-2-methylbenzonitrile]
IC50 (KRAS-G12C/SOS1): 26.2 nM
IC50 (OCI-AML5 cells): 46.4 nM

COc1cc2nc(C)nc(N[C@H](C)c3cccc(C#N)c3C)c2cc1N1CCC2(CCOCC2)CC1 [Compound 4, (R)-3-(1-((7-methoxy-2-methyl-6-(3-oxa-9-azaspiro[5.5]undecan-9-yl)quinazolin-4-yl)amino)ethyl)-2-methylbenzonitrile]
IC50 (KRAS-G12C/SOS1): 65.2 nM
IC50 (OCI-AML5 cells): 6.3 nM

COc1cc2nc(C)nc(N[C@H](C)c3cccc(C#N)c3C)c2cc1N1CCC2(CC1)CN(C(C)=O)C2 [Compound 19, (R)-3-(1-((6-(2-acetyl-2,7-diazaspiro[3.5]nonan-7-yl)-7-methoxy-2-methylquinazolin-4-yl)amino)ethyl)-2-methylbenzonitrile]
IC50 (KRAS-G12C/SOS1): 22.3 nM
IC50 (OCI-AML5 cells): 16.4 nM

COc1cc2nc(C)nc(N[C@H](C)c3cccc(C#N)c3C)c2cc1N1CCN(C(C)=O)CC1 [Compound 2, (R)-3-(1-((6-(4-acetylpiperazin-1-yl)-7-methoxy-2-methylquinazolin-4-yl)amino)ethyl)-2-methylbenzonitrile]
IC50 (KRAS-G12C/SOS1): 20.7 nM
IC50 (OCI-AML5 cells): 8.4 nM

COc1cc2nc(C)nc(N[C@H](C)c3cccc(C#N)c3C)c2cc1N1CCC2(CC1)COC2 [Compound 5, (R)-3-(1-((7-methoxy-2-methyl-6-(2-oxa-7-azaspiro[3.5]nonan-7-yl)quinazolin-4-yl)amino)ethyl)-2-methylbenzonitrile]
IC50 (KRAS-G12C/SOS1): 28 nM
IC50 (OCI-AML5 cells): 11.3 nM

COc1cc2nc(C)nc(N[C@H](C)c3cccc(C#N)c3C)c2cc1N1CCC2(CCN(C)C2=O)CC1 [Compound 7, (R)-3-(1-((7-methoxy-2-methyl-6-(2-methyl-1-oxo-2,8-diazaspiro[4.5]decan-8-yl)quinazolin-4-yl)amino)ethyl)-2-methylbenzonitrile]
IC50 (KRAS-G12C/SOS1): 35.7 nM
IC50 (OCI-AML5 cells): 2.7 nM

COc1cc2nc(C)nc(N[C@H](C)c3cccc(C#N)c3C)c2cc1N1CCC(C#N)CC1 [Compound 8, (R)-1-(4-((1-(3-cyano-2-methylphenyl)ethyl)amino)-7-methoxy-2-methylquinazolin-6-yl)piperidine-4-carbonitrile]
IC50 (KRAS-G12C/SOS1): 62 nM
IC50 (OCI-AML5 cells): 12 nM
